Where “and” joins values, the source holds several entries; their conditions need not be identical. Identical values can stand only once. Like-named read-outs stand apart in the source and are kept apart here.
Assays:
C. jejuni 81-176 = assay: Growth inhibition, liquid 96-well checkerboard (OD600, MIC, MBC); format: cell-based, Campylobacter jejuni; conditions: for OD600: DMG 0 mM, 24 h
Experimental: Growth inhibition assays: liquid (96-well) plates experiments. This type of experiment can only be conducted with C. jejuni since the gas requirement for C. concisus (H2-enriched microaerobic) is not compatible with the use of 96-well plates. C. jejuni cells were grown as described above, harvested, and resuspended in sterile NaCl (8 g/L) to an OD600 of 0.1, corresponding approximately to 5×10^8 to 1×10^9 cells/mL. […] Wells were serially (2-fold) diluted in each direction (horizontal and vertical) to introduce all combinations. Wells with no DMG or metal compounds served as (positive) growth controls, and wells with no bacteria served as background (negative growth) controls. A typical protocol and loading plan are described in Table 7. The starting inoculum was at OD600 of 0.05, which corresponds approximately to 2.5×10^8 cells/mL to 5×10^8 cells/mL. After 24 hours incubation under microaerobic conditions at 37° C., OD600 was recorded using a 96 well-plate reader (Microtek). […] Resulting growth (or lack of growth) was examined after overnight culturing; the lowest concentration that inhibits 99.9% of the original culture was defined as MBC. MIC and MBC were determined based on tests (plates) done in triplicate.

[1] = tested on: C. jejuni (strain 81-176, ATCC BAA-2151); assay: Growth inhibition, solid plates (CFU); format: cell-based, Campylobacter jejuni; conditions: 0.5 mM metal salt in combination with 2 mM DMG
Aβ40 peptide [2] = target: T1, Aβ40 peptide (Homo sapiens, UniProt P05067); assay: Thioflavin T (ThT)-based Aβ40 aggregation assay; format: biochemical; set-up: purchased rPeptides, Watkinsville, Ga., USA kit #A-1180-1; host or cells: E. coli; conditions: for increase of average Aβ40 aggregation rate compared to no supplemental metal control: pH 7.4; for Relative Aβ40 aggregation rate (% control): DMG 0 μM; for Aβ40 peptide aggregation under all pHs tested: pH 6.5, 7.5 or 8.5, 25 mM Aβ40, CuSO4 25 mM, ZnSO4 10 mM or DMG 100 mM (so in the source)
Experimental: Amyloid Beta aggregation. […] This kit contained human recombinant Aβ40 peptide (>97% pure, as determined by manufacturer's HPLC) with the following sequence […] (SEQ ID NO:1), as provided by the manufacturer. […] The aggregation of Aβ40, was shown by the increase in fluorescence (lex=440 nm/lem=485 nm) over time, was followed for 60 min or 120 min, with reading every three or five min, using a Synergy MX reader (Biotek, Winooski, Vt.). A ThT-only background control (no Aβ40 peptide) was included in triplicate in all experiments and subtracted from all readings. The aggregation rate, defined as the increase in fluorescence per min (RFU/min), was calculated by using the formula [A(440,485) at T40min)−A(440,485) at T20min]/20.
Target sequence in this assay (P05067 672-711): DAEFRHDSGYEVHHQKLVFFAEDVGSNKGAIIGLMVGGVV

[3] = tested on: C. jejuni (strain NCTC 11168); assay: C. jejuni-chicken colonization experiment; format: in vivo, chickens; conditions: Experiment 1, ad libitum CuSO4 (0.2 mM), 9 days p.i.
Experimental: Since chickens are natural hosts for C. jejuni, and chicken meat is one of the main sources of campylobacteriosis in humans, it was important to test the efficacy of DMG alone or in combination with copper in this animal model. Two independent trials were conducted, as described in FIG. 22. In both trials, the treatment was administered through ad libitum drinks, starting two to three days before C. jejuni inoculation (with strain NCTC 11168), and going through the end of each experiment. […] Nine days after inoculation with C. jejuni, chickens were euthanized, and their ceca were isolated for bacterial count. […] The treatment was administered two days before inoculation with C. jejuni, and chicken ceca were harvested eight days after inoculation.

[4] = mouse, in vivo
Aβ40 peptide [5] = target: T1, Aβ40 peptide; assay: Isothermal titration calorimetry; format: binding; set-up: purchased rPeptides, Watkinsville, Ga., USA kit #A-1180-1; host or cells: E. coli; DS (entropy): unit not given here; conditions: 20 μM Aβ40, 25° C.
Text: Nickel binding to human recombinant Aβ40 peptide is confirmed by isothermal titration calorimetry. Isothermal titration calorimetry (ITC) has been already used to analyze copper or zinc binding to various Aβ peptides, including Ab40 (Talmard et al. Biochemistry 46, 13658-13666 (2007); Sacco et al. JBIC Journal of Biological Inorganic Chemistry 17, 531-541 (2012); Hatcher et al. The journal of physical chemistry B 112, 8160-8164 (2008)). In the current study, we used ITC to determine whether nickel can bind the Aβ40 peptide. The peptide (same used in ThT-based aggregation assays) was present in the sample cell at a concentration of 20 μM. Twenty injections of NiSO4 (1 mM solution, 5 μM increments in sample cell) were performed every 5 min under constant stirring (350 rpm) at 25° C., and the heat release was measured (FIG. 9). The heat release profile indicates Ni binding to the peptide (FIG. 9, top Panel).
Isothermal Titration Calorimetry. […] Briefly, 1 mg of lyophilized Aβ40 peptide (#A-1157-2, rPeptides) was resuspended with 1% NH4OH to a concentration of 250 μM, sonicated for 15-20 sec, before being diluted to a final concentration of 20 μM Aβ40 using ddH2O and TBS 10×, pH 7.4 (working buffer: NH4OH 0.2%, TBS 1×, pH 7.4 (“NTBS”)). […] All samples were degassed for 15 min at 25° C. before use. Titration was initiated using a program for 20 injections (2.38 μL each, every 5 min) with continuous stirring (350 rpm) at constant temperature (25° C.). ITC data were analyzed using NanoAnalyze 1.2 software (TA Instruments). Data obtained with the control experiment (Aβ40 peptide in sample cell, buffer in syringe) were subtracted from each experiment to account for any injection-related heat change.
Target sequence in this assay (P05067 672-711): as above

Aβ40 peptide [6] = target: T1, Aβ40 peptide; set-up: yields Aβ peptides of various lengths (38, 40 or 42 amino acids); conditions: Talmard et al. 2007; read-out: Kd previously reported; cited from earlier work
Target sequence in this assay (P05067 672-711 limits assumed): as the sequence (P05067 672-711) above

[7] = Acute oral LD50 (literature); format: in vivo, mice
[8] = cited from earlier work
[9] = 100 mM metal (so in the source)
[10] = experiment A, supplemental metal 10 μM
[11] = experiment B, supplemental metal 100 μM

## [Cl-].[Cl-].[Co+2] [CO^2+, CoCl2, reference compound]
C. jejuni 81-176; metal with DMG 0 mM
  MBC: > 1020 µM
  MIC: > 1020 µM
C. jejuni 81-176; metal with DMG 0.5 mM
  MBC: > 1020 µM
  MIC: > 1020 µM
C. jejuni 81-176; metal with DMG 1 mM
  MBC: > 1020 µM
  MIC: > 1020 µM
C. jejuni 81-176; metal with DMG 4 mM
  MBC: 512 µM
  MIC: 256 µM
[1]
  effect on C. jejuni growth: no noticeable effect

## O=S(=O)([O-])[O-].[Cu+2] [Cu, CuSO4, reference compound]
Aβ40 peptide [2]; 10 mM metal (so in the source)
  increase of average Aβ40 aggregation rate compared to no supplemental metal control: no significant effect
Aβ40 peptide [2]; [9]
  increase of average Aβ40 aggregation rate compared to no supplemental metal control: no significant effect
Aβ40 peptide [2]; [10]
  Relative Aβ40 aggregation rate (% control): 103 ± 19 % control
Aβ40 peptide [2]; experiment C, supplemental metal 100 μM
  Relative Aβ40 aggregation rate (% control): 77 ± 2 % control
Aβ40 peptide [2]
  Aβ40 peptide aggregation under all pHs tested: negligible
C. jejuni 81-176; CuSO4 2 uM
  OD600: 0.29
C. jejuni 81-176; CuSO4 4 uM
  OD600: 0.23
C. jejuni 81-176; CuSO4 8 uM
  OD600: 0.31
C. jejuni 81-176; CuSO4 16 uM
  OD600: 0.38
C. jejuni 81-176; CuSO4 32 uM
  OD600: 0.26
C. jejuni 81-176; CuSO4 64 uM
  OD600: 0.27
C. jejuni 81-176; CuSO4 128 uM
  OD600: 0.23
C. jejuni 81-176; CuSO4 256 uM
  OD600: 0.38
C. jejuni 81-176; CuSO4 512 uM
  OD600: 0.28
C. jejuni 81-176; CuSO4 1024 uM
  OD600: 0.43
C. jejuni 81-176; metal with DMG 0 mM
  MBC: > 1020 µM
  MIC: > 1020 µM
C. jejuni 81-176; metal with DMG 0.5 mM
  MBC: > 1020 µM
  MIC: 1020 µM
[3]
  C. jejuni Average CFUs per g of cecum (x10^8): 5.95 x10^8 CFUs per g of cecum
[3]; total n=4
  Chickens Cj-free (n=): 0
  Chickens Colonized (n=): 4

## CC(=NO)C(C)=NO [D-1885, Dimethylglyoxime]
[4]
  condition of animals given chelator alone: appeared ill

## O=S(=O)([O-])[O-].[Mn+2] [MnSO4]
[1]
  effect on C. jejuni growth: no noticeable effect

## O=S(=O)([O-])[O-].[Ni+2] [Ni, NiSO4, reference compound]
Aβ40 peptide [2]; 10 mM metal (so in the source)
  increase of average Aβ40 aggregation rate compared to no supplemental metal control: 2.5 fold
Aβ40 peptide [2]; [9]
  increase of average Aβ40 aggregation rate compared to no supplemental metal control: 5.7 fold
Aβ40 peptide [2]; NiSO4 25 mM (so in the source)
  Ni(II)-induced Aβ40 aggregation at pH 6.5, compared to pH 7.5: faster
  Ni(II)-induced Aβ40 aggregation at pH 8.5: absent
Aβ40 peptide [2]; [10]
  Relative Aβ40 aggregation rate (% control): 252 ± 8 % control
Aβ40 peptide [2]; [11]
  Relative Aβ40 aggregation rate (% control): 567 ± 61 % control
Aβ40 peptide [5]
  DH (enthalpy): -1.2 kcal/mol
  DS (entropy): 86
  apparent stoichiometry: 0.7 mole Ni(II) per mole of Aβ40 p
Aβ40 peptide [5]; pH 7.4, read-out: apparent Kd
  Kd: 4.2 µM and ~4.2 µM
C. jejuni 81-176; metal with DMG 0 mM
  MBC: > 1020 µM
  MIC: > 1020 µM
C. jejuni 81-176; metal with DMG 0.5 mM
  MBC: > 1020 µM
  MIC: > 1020 µM
C. jejuni 81-176; metal with DMG 1 mM
  MBC: > 1020 µM
  MIC: > 1020 µM
C. jejuni 81-176; metal with DMG 2 mM
  MBC: > 1020 µM
  MIC: > 1020 µM
C. jejuni 81-176; metal with DMG 4 mM
  MBC: > 1020 µM
  MIC: > 1020 µM
[1]
  effect on C. jejuni growth: no noticeable effect

## O=S(=O)([O-])[O-].[Zn+2] [Zn, ZnSO4, reference compound]
Aβ40 peptide [2]; 10 mM metal (so in the source)
  increase of average Aβ40 aggregation rate compared to no supplemental metal control: 5 fold
Aβ40 peptide [2]; [9]
  increase of average Aβ40 aggregation rate compared to no supplemental metal control: 14 fold
Aβ40 peptide [2]; [10]
  Relative Aβ40 aggregation rate (% control): 505 ± 29 % control
Aβ40 peptide [2]; [11]
  Relative Aβ40 aggregation rate (% control): 1423 ± 258 % control
Aβ40 peptide [2]
  Aβ40 peptide aggregation under all pHs tested: fastest and sharpest increase in fluorescence
Aβ40 peptide [6]
  Kd: 7 ± 3 µM
C. jejuni 81-176; metal with DMG 0 mM
  MBC: > 1024 µM
  MIC: 512 µM
C. jejuni 81-176; metal with DMG 0.5 mM
  MBC: > 1024 µM
  MIC: 512 µM
C. jejuni 81-176; metal with DMG 1 mM
  MBC: > 1024 µM
  MIC: 512 µM
C. jejuni 81-176; metal with DMG 2 mM
  MBC: > 1024 µM
  MIC: 512 µM
C. jejuni 81-176; metal with DMG 4 mM
  MBC: > 1024 µM
  MIC: 512 µM
[1]
  effect on C. jejuni growth: no noticeable effect

## CCN(CC)C(=S)SSC(=S)N(CC)CC [disulfiram]
[7]
  LD50 amount per mouse: approximately 20 μg
[8]
  acute oral LD50: 1.013 mg/kg

Reference: patent publication US20220117266A1, “NICKEL CHELATION THERAPY” (priority 2019, published 2022)
